Measurements: patent US20240417387A1, “SULFONYLPIPERAZINYL COMPOUNDS FOR TREATMENT OF BACTERIAL INFECTIONS” (Hoffmann-La Roche Inc., priority 2021, published 2024)
≈ marks a conversion by molar mass, not a printed value. Like-named read-outs stand apart in the source and are kept apart here.

Tests used:
[1] = system: Escherichia coli BW 25113; experiment: Minimal Inhibitory Concentration (MIC) broth dilution assay, E. coli BW 25113; type: cell-based; conditions: Escherichia coli, BW25113, 20 hours at 35° C., CAMHB, read-out: MIC E. coli K-12 BW 25113
Protocol: (§1) The antibacterial activity of molecules was evaluated against the commonly used quality control strain Escherichia coli BW 25113, Escherichia coli ATCC 25922 and the rifampin-resistant mutant strain Klebsiella pneumonia ATCC 43816. Escherichia co/i BW 25113 was obtained from the Coli Genetic Stock Center (CGSC) (strain 7636). Both Escherichia coli ATCC 25922 and Klebsiella pneumonia ATCC 43816 were originally derived from human clinical samples and are available from ATCC (American Type Culture Collection). The in vitro potency of compounds to inhibit Escherichia coli (BW 25113, ATCC 25922) and Klebsiella pneumonia (ATCC 43816) growth was assessed by the MIC (Minimal Inhibitory Concentration) broth dilution method. Specifically compound dilutions were prepared from 10 mM DMSO stock solutions as follows: i) serial 2-fold dilution in 20 μL DMSO were prepared in a master plate (Greiner, Cat No: 651201), ii) 180 μL sterile distilled water was added to each aliquot and iii) 10 μL diluted compounds were transferred into a new assay plate (Costar, 3599).
(§2) Vials of each test microorganisms were maintained frozen in the vapor phase of a liquid nitrogen freezer. Single-use frozen vials of the three strains Escherichia coli BW 25113, Escherichia coli ATCC 25922 (KWTKSTTK, 0335K) and Klebsiella pneumonia ATCC 43816, with predetermined CFU/mL, were taken out from the freezer, thawed at room temperature, and diluted in Cation-Adjusted Mueller Hinton Broth (CAMVIHB) to achieve a final inoculum of 5×10^5 CFU/mL. 90 μL bacteria containing broth was dispensed to the assay plate containing the pre-dispensed compound dilutions and mixed by pipetting 5 times.
(§3) Then the assay plates were incubated for 20 hours at 35° C. in ambient air. Following incubation, the MIC […], the lowest concentration of drug that inhibits visible growth of the microorganism was read with the help of a magnification mirror and recorded.

[2] = target: Escherichia coli UDP-2,3-diacylglucosamine hydrolase (LpxH) (Escherichia coli (strain K12), UniProt P43341); experiment: Enzymatic IC50 assay of Escherichia coli LpxH (UMP/CMP-Glo luminescence); type: biochemical; conditions: Enzymatic IC50 against Escherichia coli LpxH; read-out: IC50 (converted)
Protocol: The inhibitory potency of compounds of Escherichia coli UDP-2,3-diacylglucosamine hydrolase (LpxH) was determined in an enzymatic assay. UDP-2,3-diacylglucosamine (UDP-DAG) was purified from the Caulobacter crescentus LpxI D225A mutant protein that contained a tightly bound UDP-DAG molecule. The enzyme was diluted using assay buffer containing 50 mM NaCl, 20 mM Tris-HCl pH7.5, 2.5 mM MnCl2, 0.01% Triton X-100.1 mg/mL BSA, and the final concentration is 2 nM. The compounds were diluted by Agilent liquid handler Bravo, the compound's serial dilution dose ranges from 100 μM to 1.7 nM. Then the enzyme and compounds mixture were incubated at room temperature for 10 mins. The enzymatic assay was started by adding UDP-DAG (FAC is 5 μM) and incubated for 20 mins at room temperature. The plate was then heated to 95° C. for 15 mins on a water batch to stop the reaction. The hydrolysis of UDP-DAG by LpxH yielded 2,3-diacylglucosamine 1-phosphate (lipid X) and UMP, which was converted to ATP and quantified by the luciferase reaction using the UMP/CMP-Glo™ Glycosyltransferase Assay kit from Promega. The compound's inhibitory effect of LpxH is determined by measuring the light change using a luminometer (Envision).

[3] = system: Klebsiella pneumonia ATCC 43816; experiment: Minimal Inhibitory Concentration (MIC) broth dilution assay, K. pneumonia ATCC 43816; type: cell-based; conditions: Klebsiella pneumoniae, ATCC43816, 20 hours at 35° C., CAMHB, read-out: MIC K. p ATCC 43816
Protocol: as §1, §2, §3

[4] = system: Escherichia coli ATCC 25922; experiment: Minimal Inhibitory Concentration (MIC) broth dilution assay, E. coli ATCC 25922; type: cell-based; conditions: Escherichia coli
Protocol: as §1, §2, §3

[5] = Human microsome stability assay; type: in vitro ADME; conditions: human liver microsomes 0.5 mg/mL, 37° C., pH 7.4, NADPH regenerating system
Protocol: The human microsomal stability assay is used for early assessment of metabolic stability of a test compound in human liver microsomes.
Human liver microsomes (Cat.NO.: 452117, Corning, USA) were preincubated with test compound for 10 minutes at 37° C. in 100 mM potassium phosphate buffer, pH 7.4. The reactions were initiated by adding NADPH regenerating system. The final incubation mixtures contained 1 µM test compound, 0.5 mg/mL liver microsomal protein, 1 mM MgCl2, 1 mM NADP, 1 unit/mL isocitric dehydrogenase and 6 mM isocitric acid in 100 mM potassium phosphate buffer, pH 7.4. After incubation times of 0, 3, 6, 9, 15 and 30 minutes at 37° C., 300 μL of cold acetonitrile (including internal standard) was added to 100 μL incubation mixture to terminate the reaction. Following precipitation and centrifugation, the amount of compound remaining in the samples were determined by LC-MS/MS. Controls of no NADPH regenerating system at zero and 30 minutes were also prepared and analyzed. […] (Human microsome clearance: <7 mL/min/kg: low; 7-16.2 mL/min/kg: medium; >16.2 mL/min/kg: high)

[6] = ATCC25922, 20 h, read-out: MIC E. coli ATCC 25922
[7] = ATCC25922, read-out: MIC E. coli ATCC 25922, broth dilution, 20 hours at 35° C., CAMHB, read-out: MIC E. coli K-12 ATCC 25922

Escherichia coli UDP-2,3-diacylglucosamine hydrolase (LpxH), sequence (P43341 whole entry): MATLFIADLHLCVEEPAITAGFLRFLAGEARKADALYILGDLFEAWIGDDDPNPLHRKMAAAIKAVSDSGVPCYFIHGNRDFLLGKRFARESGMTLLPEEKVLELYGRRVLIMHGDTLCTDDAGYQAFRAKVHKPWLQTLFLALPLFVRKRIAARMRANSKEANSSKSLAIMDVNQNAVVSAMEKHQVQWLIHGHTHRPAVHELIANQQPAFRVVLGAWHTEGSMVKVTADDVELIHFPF

| SMILES | MIC [1] [µg/mL] | IC50 [2] [nM] | MIC [3] [µg/mL] | MIC [4, 6] [µg/mL] | Clearance of Human microsome [5] [mL/min/kg] | MIC [4, 7] [µg/mL] |
| --- | --- | --- | --- | --- | --- | --- |
| COC(=O)[C@H]1CC[C@H](C(F)(F)c2cc(Cl)nc(N3CCN(S(=O)(=O)c4ccc(N5CC(N)CC5=O)cc4)CC3)c2)CC1 (stereo partly drawn) [Example 001, Trans-methyl 4-[[2-[4-[4-(4-amino-2-oxo-pyrrolidin-1-yl)phenyl]sulfonylpiperazin-1-yl]-6-chloro-4-pyridyl]-difluoro-methyl]cyclohexanecarboxylate] | 0.49 (≈ 0.783 µM) | 3.19 | 0.98 (≈ 1.57 µM) | 0.98 (≈ 1.57 µM) | – | – |
| N[C@@H]1CC(=O)N(c2ccc(S(=O)(=O)N3CCN(c4cc(C(F)(F)c5cnc(C(=O)NCCN6CCOCC6)cn5)cc(Cl)n4)CC3)cc2)C1 [Example 025, 5-[[2-chloro-6-[4-[4-[(4R)-4-amino-2-oxo-pyrrolidin-1-yl]phenyl]sulfonylpiperazin-1-yl]-4-pyridyl]-difluoro-methyl]-N-(2-morpholinoethyl)pyrazine-2-carboxamide] | – | < 2.78 | – | – | – | – |
| C[N+]1(CCN)CCN(C(=O)[C@H]2CC[C@H](C(F)(F)c3cc(Cl)nc(N4CCN(S(=O)(=O)c5ccc(N6C[C@H](N)CC6=O)cc5)CC4)c3)CC2)CC1 [Example 071, Trans-(4R)-4-amino-1-[4-[4-[4-[[4-[4-(2-aminoethyl)-4-methyl-piperazin-4-ium-1-carbonyl]cyclohexyl]-difluoro-methyl]-6-chloro-2-pyridyl]piperazin-1-yl]sulfonylphenyl]pyrrolidin-2-one] | – | 14.9 | – | – | 10.73 | – |
| CNC(=O)c1ccc(C(F)(F)c2cc(Cl)nc(N3CCN(S(=O)(=O)c4ccc(N5CC(NCCCN)CC5=O)cc4)CC3)c2)cc1 (centres unmarked) [Example 078, 4-[[2-[4-[4-[4-(3-Aminopropylamino)-2-oxo-pyrrolidin-1-yl]phenyl]sulfonylpiperazin-1-yl]-6-chloro-4-pyridyl]-difluoro-methyl]-N-methyl-benzamide] | 1.4 (≈ 2.07 µM) | 5.92 | 2.1 (≈ 3.11 µM) | – | – | 2.8 (≈ 4.14 µM) |
| NCC(N)CNC(=O)[C@H]1CC[C@H](C(F)(F)c2cc(Cl)nc(N3CCN(S(=O)(=O)c4ccc(N5C[C@H](N)CC5=O)cc4)CC3)c2)CC1 (stereo partly drawn) [Example 077, Trans-4-[[2-chloro-6-[4-[4-[(4R)-4-amino-2-oxo-pyrrolidin-1-yl]phenyl]sulfonylpiperazin-1-yl]-4-pyridyl]-difluoro-methyl]-N-(2,3-diaminopropyl)cyclohexanecarboxamide] | 2.2 (≈ 3.22 µM) | 2.93 | 2.2 (≈ 3.22 µM) | – | – | 2.2 (≈ 3.22 µM) |
| N[C@@H]1CC(=O)N(c2ccc(S(=O)(=O)N3CCN(c4cc(C(F)(F)[C@H]5CC[C@@H](C(=O)NCCCO)CC5)cc(Cl)n4)CC3)cc2)C1 [Example 032] | 3.3 (≈ 4.93 µM) | < 2.99 | 2.2 (≈ 3.29 µM) | 2.2 (≈ 3.29 µM) | – | – |
| NCCNCCNC(=O)c1ccc(C(F)(F)c2cc(Cl)nc(N3CCN(S(=O)(=O)c4ccc(N5C[C@H](N)CC5=O)cc4)CC3)c2)nc1 [Example 028, N-[2-(2-aminoethylamino)ethyl]-6-[[2-chloro-6-[4-[4-[(4R)-4-amino-2-oxo-pyrrolidin-1-yl]phenyl]sulfonylpiperazin-1-yl]-4-pyridyl]-difluoro-methyl]pyridine-3-carboxamide] | 1.6 (≈ 2.31 µM) | 20.2 | 1.6 (≈ 2.31 µM) | – | – | 1.6 (≈ 2.31 µM) |
| NC(=O)CNC(=O)[C@H]1CC[C@@H](C(F)(F)c2cc(Cl)nc(N3CCN(S(=O)(=O)c4ccc(N5C[C@H](N)CC5=O)cc4)CC3)c2)CC1 [Example 063, Cis-N-(2-amino-2-oxo-ethyl)-4-[[2-chloro-6-[4-[4-[(4R)-4-amino-2-oxo-pyrrolidin-1-yl]phenyl]sulfonylpiperazin-1-y1]-4-pyridyl]-difluoro-methyl]cyclohexanecarboxamide] | – | 5.99 | – | – | – | – |
| C[N+](C)(CCCN)CCCNC(=O)[C@H]1CC[C@H](C(F)(F)c2cc(Cl)nc(N3CCN(S(=O)(=O)c4ccc(N5C[C@H](N)CC5=O)cc4)CC3)c2)CC1 [Example 084, Trans-3-[[4-[[2-[4-[4-[(4R)-4-amino-2-oxo-pyrrolidin-1-yl]phenyl]sulfonylpiperazin-1-yl]-6-chloro-4-pyridyl]-difluoro-methyl]cyclohexanecarbonyl]amino]propyl-(3-aminopropyl)-dimethyl-ammonium] | 0.48 | – | 0.81 | 0.48 | 9.7 | – |
| NCC(=O)NNC(=O)[C@H]1CC[C@H](C(F)(F)c2cc(Cl)nc(N3CCN(S(=O)(=O)c4ccc(N5C[C@H](N)CC5=O)cc4)CC3)c2)CC1 [Example 050, Trans-N′-(2-aminoacetyl)-4-[[2-chloro-6-[4-[4-[(4R)-4-amino-2-oxo-pyrrolidin-1-yl]phenyl]sulfonylpiperazin-1-yl]-4-pyridyl]-difluoro-methyl]cyclohexanecarbohydrazide] | 2.1 (≈ 3.07 µM) | 2.93 | 1.1 (≈ 1.61 µM) | – | – | 1.1 (≈ 1.61 µM) |
| C[C@H]1C[C@H](N)CN1C(=O)[C@H]1CC[C@H](C(F)(F)c2cc(Cl)nc(N3CCN(S(=O)(=O)c4ccc(N5C[C@H](N)CC5=O)cc4)CC3)c2)CC1 [Example 064, (4R)-4-amino-1-[4-[4-[4-[[4-[(2S,4S)-4-amino-2-methyl-pyrrolidine-1-carbonyl]cyclohexyl]-difluoro-methyl]-6-chloro-2-pyridyl]piperazin-1-yl]sulfonylphenyl]pyrrolidin-2-one] | 0.67 (≈ 0.965 µM) | – | 0.57 (≈ 0.821 µM) | 0.57 (≈ 0.821 µM) | 6.15 | – |
| NCC(=O)N[C@H]1CC[C@@H](NC(=O)[C@H]2CC[C@H](C(F)(F)c3cc(Cl)nc(N4CCN(S(=O)(=O)c5ccc(N6C[C@H](N)CC6=O)cc5)CC4)c3)CC2)C1 [Example 079, Trans-N-[(1R,3S)-3-[(2-aminoacetyl)amino]cyclopentyl]-4-[[2-[4-[4-[(4R)-4-amino-2-oxo-pyrrolidin-1-yl]phenyl]sulfonylpiperazin-1-yl]-6-chloro-4-pyridyl]-difluoro-methyl]cyclohexanecarboxamide] | 3.4 (≈ 4.53 µM) | – | 0.85 (≈ 1.13 µM) | 3.4 (≈ 4.53 µM) | 11.16 | – |
| Cc1cc(C(F)(F)[C@H]2CC[C@H](C(=O)NCCCN)CC2)nc(N2CCN(S(=O)(=O)c3ccc(N4C[C@H](N)CC4=O)cc3)CC2)n1 [Example 054, Trans-N-(3-aminopropyl)-4-[difluoro-[6-methyl-2-[4-[4-[(4R)-4-amino-2-oxo-pyrrolidin-1-yl]phenyl]sulfonylpiperazin-1-yl]pyrimidin-4-yl]methyl]cyclohexanecarboxamide] | – | 37 | – | – | – | – |
